Entries after “also recorded” stand apart in the source; their conditions may differ.
System: pFlare splicing reporter (MAPT exon 10) in HEK293 cells
Test: Dual fluorescence (RFP/GFP) alternative splicing reporter (pFlare) assay
Assay type: cell-based
Procedure: For evaluation of in vitro splicing activity using a two-color fluorescent splicing reporter system, HEK293T cells (mycoplasma-free authenticated cell lines obtained from ATCC) were grown in complete media (DMEM+10% FBS) and transfected with a series of fluorescent protein-expressing plasmids. Vector controls include pFlare5A, which expresses solely GFP, and pFlare5G, which expresses maximal RFP. The pFlare reporter contains microtubule-associated protein tau (MAPT) exon 10 as an indicator of alternative splicing. Under physiological conditions, the pFlare conditional reporter vector allows in-frame expression of GFP but not RFP. In the presence of splicing inhibitors, exon skipping favors production of RFP over GFP. […] Fluorescence was evaluated on a Leica fluorescent microscope (Sanford Consortium Stem Cell Core facility) and then analyzed by flow cytometry on a Miltenyi MACSQUANT® to assess transfection efficiency (ranging from over 70% at 24 hrs after transfection to approximately 20% at 48 hrs after transfection) and mean fluorescence intensity (MFI) of RFP and GFP in positive cells. In HEK293 cells transiently transfected with control GFP or RFP vectors, or the pFlare splicing reporter vector, the dynamic range of the assay as measured by MFI of GFP and RFP 48 hours after transfection ranged from 0.41-1.69 for RFP/GFP ratios (FIG. 6A). […]

How did the RFP/GFP ratios (HEK293 cells, 0.01-10 μM, 24 hrs, flow cytometry MFI) turn out when `CC[C@H](OC)[C@@H](C)[C@H]1O[C@@H]1[C@@H](O)[C@H](C)/C=C/C=C(\C)[C@H]1OC(=O)C[C@H](O)CC[C@@](C)(O)[C@@H](OC(C)=O)/C=C/[C@@H]1C` (stereo in doubt) [Formula 17S-FD-895, 17S-FD-895] was run?
The RFP/GFP ratios was “dose-dependent increase”.

What about the “RFP fluorescence by confocal microscopy” value (reporter-transfected HEK293 cells, 1-10 μM, live-cell / time-lapse) of the same compound?
Its value is “increase in RFP fluorescence; also recorded: increased RFP/GFP expression; also recorded: increased RFP fluorescence”.

— patent publication US10675267B2, “Methods for detection and eradication of myeloid leukemia stem cells” (priority 2015, dated 2020)
